Measurements from patent publication US4879296A, “Xanthine derivatives” (Burroughs Wellcome co., priority 1985, dated 1989).

Columns and labels:
[1] = target: T1, ADO-induced prolongation of the atrio-to-His bundle conduction time (Cavia porcellus, UniProt P47745); assay: Inhibition of ADO-induced prolongation of the atrio-to-His bundle conduction time in isolated, perfused guinea-pig heart; details: five animals; 5 μm ADO infusion; Eadie-Scatchard plot of %INH; read-out: mean Kd(50)
T1 construct: isolated, perfused guinea-pig heart preparations; from tissue; host or cells: isolated, perfused guinea-pig heart
T1 sequence (P47745 1-326): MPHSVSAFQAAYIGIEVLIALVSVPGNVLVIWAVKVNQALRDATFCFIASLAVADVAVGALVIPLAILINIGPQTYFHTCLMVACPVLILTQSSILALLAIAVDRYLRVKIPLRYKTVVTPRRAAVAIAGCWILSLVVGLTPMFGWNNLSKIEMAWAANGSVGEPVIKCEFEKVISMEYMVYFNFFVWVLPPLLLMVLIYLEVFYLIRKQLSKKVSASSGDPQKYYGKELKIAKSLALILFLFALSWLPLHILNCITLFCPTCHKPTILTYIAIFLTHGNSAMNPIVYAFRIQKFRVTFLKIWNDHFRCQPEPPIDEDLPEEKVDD
Procedure: The ability of (E)-4-(1,2,3,6-tetrahydro-1,3-dimethyl-2,6-dioxo-9H-purin-8-yl)cinnamic acid to inhibit ADO-induced prolongation of the atrio-to-His bundle conduction time and, thus, its potential for the treatment of cardiac disorders including heart block, was evaluated in isolated, perfused guinea-pig heart preparations.
Male and female guinea-pigs were sacrificed by a blow to the head, and their hearts were quickly removed. The heart was then hung on a retro-grade aortic infusion apparatus. […]
Pacing was initiated at a rate that ensured one to one capture and later was set to 2-3 Hz. […] Two antagonists were evaluated per guinea-pig. […]
A.V. conduction times were measured from the HBE and LAE. […] Differences were then calculated by subtracting the control interval in question. Percentage ADO prolongation inhibition (%INH) was calculated by subtracting the A-A difference from the ADO difference, dividing by ADO difference, and multiplying by 100, thus %INH=(ADO diff.-ant. diff.)/ADO diff.*100.
The Kd(50) was then evaluated by an Fadie-Scatchard plot, where (%INH)/(antagonist conc.) was plotted on the ordinate and %INH on the abscissa. […]

[2] = Standard LD50 test, intraperitoneal, mice; details: mouse, in vivo, ip
Procedure: The toxicity of a representative number of compounds of the present invention was determined by using the standard LD50 test.

purine receptors = target: T2, purine receptors (Cavia porcellus, UniProt P47745); assay: Purine receptor antagonism in guinea pig ileum twitch test (agonist 2-chloroadenosine, Schild regression); details: for slope (Schild regression): value in brackets beside pA2, guinea pig ileum; for Kb: vs 2-chloroadenosine, Schild regression, may be considered the pKb, read-out: pA2 Guinea pig ileum (converted)
T2 construct: Ilea were removed from sacrificed guinea pigs and placed in organ baths; from tissue; host or cells: guinea pig ileum
T2 sequence (P47745 1-326): T1 sequence (P47745 1-326)
Procedure: Accordingly, a representative number of compounds of the present invention were tested for their ability to antagonise the purine receptors using the guinea pig ileum test system.
Ilea were removed from sacrificed guinea pigs and placed in organ baths containing oxygenated Krebs-Henseleit buffer. After equilibration, the ilea were stimulated to contract (twitch contraction) using an electrical field-stimulus of 0.1 Hz, 0.05 ms duration and maximal voltage. Under these conditions, the twitch contraction results from the release of acetylcholine.
Concentration response curves to the purine agonist, 2-chloroadenosine, were determined first in the absence and then in the presence of multiple concentrations of the compounds of the invention. One concentration of each compound was used per tissue. Quantification of purine receptor antagonism was accomplished using the Schild regression technique, i.e. plots of log (dose-ratio-1) vs log compound concentration, and the pA2 determined by regression of the data points to the x-intercept, where log (dose-ratio-1) is zero.

SMILES | Kd [1] | LD50 [2] | slope (Schild regression) (purine receptors) | Kb (purine receptors)
Cn1c(=O)c2nc(-c3ccc(/C=C/C(=O)O)cc3)[nH]c2n(C)c1=O [Example 1, (E)-4-(1,2,3,6-tetrahydro-1,3,-dimethyl-2,6-dioxo-9H-purin-8-yl)cinnamic acid] | 190 nM | > 500 mg/kg | – | –
CCCn1c(=O)c2nc(-c3ccc(/C=C/C(=O)O)cc3)[nH]c2n(CCC)c1=O [Example 6, (E)-4-(1,2,3,6-tetrahydro-2,6-dioxo-1,3-dipropyl-9H-purin-8-yl)cinnamic acid] | – | > 500 mg/kg | 0.9 | 20 nM
CC(C)Cn1c(=O)[nH]c(=O)c2nc(-c3ccc(/C=C/C(=O)O)cc3)[nH]c21 [Example 10, (E)-4-(1,2,3,6-tetrahydro-3-isobutyl-2,6-dioxo-9H-purin-8-yl)cinnamic acid] | – | > 100 mg/kg | – | –
CCCn1c(=O)n(C)c(=O)c2nc(-c3ccc(/C=C/C(=O)O)cc3)[nH]c21 [Example 11, (E)-4-(1,2,3,6-tetrahydro-1-methyl-2,6-dioxo-3-propyl-9H-purin-8-yl)cinnamic acid] | – | – | 1.0 | 100 nM
CC(C)Cn1c(=O)n(C)c(=O)c2nc(-c3ccc(/C=C/C(=O)O)cc3)[nH]c21 [Example 12, (E)-4-(1,2,3,6-tetrahydro-3-isobutyl-1-methyl-2,6-dioxo-9H-purin-8-yl)cinnamic acid] | – | > 100 mg/kg | – | –
CCCCn1c(=O)c2nc(-c3ccc(/C=C/C(=O)O)cc3)[nH]c2n(CCCC)c1=O [Example 14, (E)-4-(1,3-dibutyl-1,2,3,6-tetrahydro-2,6-dioxo-9H-purin-8-yl)cinnamic acid] | – | > 100 mg/kg | 1.0 | 31.6 nM
O=C(O)/C=C/c1ccc(-c2nc3c(=O)n(Cc4ccccc4)c(=O)n(Cc4ccccc4)c3[nH]2)cc1 [Example 15, (E)-4-(1,3-dibenzyl-1,2,3,6-tetrahydro-2,6-dioxo-9H-purin-8-yl)cinnamic acid] | – | – | 0.9 | 79.4 nM
CCCCn1c(=O)n(C)c(=O)c2nc(-c3ccc(/C=C/C(=O)O)cc3)[nH]c21 [Example 16, (E)-4-(3-butyl-1,2,3,6-tetrahydro-1-methyl-2,6-dioxo-9H-purin-8-yl)cinnamic acid] | – | > 100 mg/kg | – | –
Cn1c(=O)c2nc(-c3ccc(/C=C/C(=O)O)cc3)[nH]c2n(Cc2ccccc2)c1=O [Example 18, (E)-4-(3-benzyl-1,2,3,6-tetrahydro-1-methyl-2,6-dioxo-9H-purin-8-yl)cinnamic acid] | – | > 100 mg/kg | 0.9 | 79.4 nM
CC(C)Cn1c(=O)c2nc(-c3ccc(/C=C/C(=O)O)cc3)[nH]c2n(CC(C)C)c1=O [Example 19, (E)-4-(1,2,3,6-tetrahydro-1,3-diisobutyl-2,6-dioxo-9H-purin-8-yl)cinnamic acid] | – | – | 1.0 | 35.5 nM
Cn1c(=O)c2[nH]cnc2n(C)c1=O [THEOPHYLLINE, 1,3-dimethylxanthine, reference compound] | – | – | 1.1 | –
